Measurements from patent publication US20240360145A1, “PYRIMIDINE-2,4-DIAMINE DERIVATIVES AS WELL AS PREPARATION METHOD THEREFOR AND USE THEREOF” (LISEN THERAPEUTICS, INC., priority 2022, published 2024).

Columns and labels:
[1] = test system: NCI-H1975 cells; experiment: Cell viability IC50 (MTT), Gefitinib-resistant NCI-H1975 cells; settings: Homo sapiens, NCI-H1975, 72 h, read-out: cell viability IC50
Experimental: 1% sodium pyruvate was additionally added when culturing NCI-H1975 cells. All the cells were cultured in a constant temperature incubator containing 5% CO2 at 37° C.
(1) The cells were cultured to the logarithmic growth phase. […] After centrifugation at room temperature, the supernatant was discarded, and the cell precipitate was resuspended with fresh complete medium. After counting, the cells were placed at room temperature for later use.
(2) The cells were inoculated into a 96-well plate at a density of 4,000 cells/well with a volume of 100 μl/well. The wells at the outermost circle of the plate were not inoculated with cells, and instead, added with sterile water to reduce evaporation of the culture medium.
(3) After overnight culture of the cells, the medium was discarded, and a fresh medium containing different concentrations of compounds was added at 200 μl/well. The dilution method of the compound was as follows: first the compound with the highest concentration of 10 μM was prepared, and then the compound was diluted for 3 times in sequence. […] At the same time, a blank control group was set up, in which only an equal volume of culture medium was added without adding cells. Six replicate wells were set up for each group. The cells were placed in the incubator for further culture.
(4) After 72 hours, 20 μl of MTT solution (5 mg/ml) sterilized by filtration through a 0.22 m filter membrane was added to each well, and the cells were cultured in an incubator at 37° C. for another 4 hours.
(6) IC50 of the compounds for different cells was calculated based on the light absorption value of each group. Specifically, the absorbance value under treatment with different concentrations of compounds was first subtracted from the absorbance value of the blank well, and then the absorbance value of the 0 μM group was taken as 100% to calculate the cell survival rate after treatment with different concentrations of compounds. That is, survival rate=((ODexperimental well−ODblank control)/(ODnegative control−ODblank control))×100%. IC50 values were calculated based on the survival rate and concentration of the compound.

[2] = test system: MCF-7 (breast cancer); experiment: Cell viability IC50 (CellTiter-Glo), MCF-7; format: cell-based; settings: Homo sapiens, MCF7, MCF-7, 72 hours
Experimental: (§1) The cancer cell lines were cultured to the logarithmic growth phase according to conventional culture methods, and the cells were inoculated into a 384-well plate at a density of 2,000 cells/well in a volume of 40 μl/well. The concentrations of added compounds were: […], 1.67 μM, 0.56 μM, 0.19 μM, 0.062 μM, 0.021 μM, 0.0069 μM, 0.0023 μM, 0.00076 μM, and 0 μM. After 72 hours, cell viability was detected using the CellTiter-Glo™ Detection Kit.

[3] = test system: RT-4 (bladder cancer); experiment: Cell viability IC50 (CellTiter-Glo), RT-4; format: cell-based; settings: RT-4, 72 hours
Experimental: as §1

[4] = test system: LT015 primary cells; experiment: Cell viability IC50 (CCK-8), primary cells LT015 from small cell lung cancer bronchoscopic biopsy; format: cell-based; settings: LT015, CCK-8
Experimental: (1) The tissue blocks obtained from the tumor patients were transferred from the preservation solution to the pre-cooled HBSS buffer containing antibiotics, and the tissue blocks were washed for three times with the pre-cooled HBSS buffer.
(2) Tissue was sheared on ice with sterile surgical instruments until no obvious tissue blocks are visible to the naked eye, the tissue fluid was collected into a 15 ml centrifuge tube, and this process takes about 5 to 10 minutes.
(3) Digestive enzymes (collagenase I, collagenase IV and neutral protease being mixed in a ratio of 1:1:1, a concentration of stock solution was 10 mg/ml, diluted with PBS buffer or HBSS buffer, and the use concentration was 1 mg/ml) were added to the centrifuge tube, and after mixing well by pipetting, the centrifuge tube was placed in a 37° C. constant temperature incubator for 1 to 2 hours.
(4) High-glucose medium was added to the centrifuge tube to stop digestion. After mixing well, the cell precipitate was collected by centrifugation, and resuspended with MBM medium (Advanced DMEM-F12+20 ng/ml bFGF+50 ng/ml EGF+1% ITS-X+2% B27+10 μMY-27632+1% PS). The cell suspension was placed in a Matrigel-coated 24-well plate and cultured for 5 to 7 days. When the cell density in the well plate reaches 80-90%, the cells were sub-cultured into a 6 cm cell culture dish, and when they grew to a density of 80% to 90%, the cells were cryopreserved for preservation.
(§2) (1) Primary cells from lung cancer pleural effusion within 5 generations were cultured to the logarithmic growth phase. When the confluence reached about 90%, the cells were digested with 0.25% trypsin, and complete culture medium was added to collect the cells. After centrifugation at room temperature, the supernatant was discarded, and the cell precipitate was resuspended with fresh complete culture medium. After counting, the cells were placed at room temperature for later use. The cells were inoculated into a 384-well plate at a density of 2000 cells/well with a volume of 40 μl/well. The wells at the outermost circle of the plate were not inoculated with cells, and instead, added with sterile water to reduce evaporation of the culture medium.
(§3) (2) After overnight culture of the cells, the medium was discarded, and a fresh medium containing different concentrations of compounds was added at 200 μl/well. The dilution method of the compound was as follows: first the compound with the highest concentration of 10 μM was prepared, and then the compound was diluted for 3 times in sequence. […] At the same time, a blank control group was set up, in which only an equal volume of culture medium was added without adding cells. Five replicate wells were set up for each group. The cells were placed in the incubator for further culture.
(3) After 72 hours, 8 μl of CCK-8 solution, which was double-diluted with 10 mM PBS, was added to each well, and the cells were shaken and placed in an incubator at 37° C. for further culture for 2 hours.
(4) The light absorbance value at 450 nm was read using a microplate reader, and the IC50 was calculated according to the absorbance value. The calculation method was the same as above.
(1) Sample information: PE039, PE052, and PE062 were all primary cell samples from pleural effusion of patients with small cell lung cancer, and LT015 was a primary cell sample from bronchoscopic biopsy of a patient with small cell lung cancer.
(2) CCK-8 detection was used to detect the IC50 values of different medicaments (compounds).

[5] = test system: Hela (cervical cancer); experiment: Cell viability IC50 (CellTiter-Glo), Hela; format: cell-based; settings: Homo sapiens, 72 hours
Experimental: as §1

[6] = test system: KYSE-70 (esophageal cancer); experiment: Cell viability IC50 (CellTiter-Glo), KYSE-70; format: cell-based; settings: Homo sapiens, KYSE-70, 72 hours
Experimental: as §1

[7] = test system: primary cells from pleural effusion of patients with small cell lung cancer; experiment: Cell viability IC50 (CCK-8), summary over primary cells from pleural effusion of patients with small cell lung cancer; format: cell-based; settings: Homo sapiens; range over primary cells of patients with small cell lung cancer (Table 4)
Experimental: as §2
as §3, with “Five replicate wells were set up for each group. The cells were placed in the incubator for further culture.” left out
(4) The light absorbance value at 450 nm was read using a microplate reader, and the IC50 was calculated according to the absorbance value. […]

[8] = test system: OV-90 (ovarian cancer); experiment: Cell viability IC50 (CellTiter-Glo), OV-90; format: cell-based; settings: Homo sapiens, OV-90, 72 hours
Experimental: as §1

CN1CC2CCC(C1)N2Cc1ccc(Nc2ncc(Cl)c(Nc3ccccc3S(=O)(=O)N(C)C)n2)cc1 [Compound 8, 2-((5-chloro-2-((4-((3-methyl-3,8-diazabicyclo[3.2.1]octan-8-yl)methyl)phenyl)amino)pyrimidin-4-yl)amino)-N,N-dimethylbenzenesulfonamide] gave an IC50 [1] of 55.2 nM, an IC50 [2] of 52.8 nM and an IC50 [3] of 54 nM. For the same compound, the IC50 [4] was 6.11 nM, the IC50 [5] was 123 nM and the IC50 [6] was 122 nM. It also gave an IC50 [7] of 2.7 to 59.9 nM and an IC50 [8] of 103 nM.
